The values below come from patent EP3076168A1, “An electrochemical sensor” (Unisense Environment A/S, priority 2015, dated 2016).

Series [1] is described as follows: Solubility test of oxygen scavenger candidates (solvent added for a final 1 M, visual inspection of remaining solid). The class given is physicochemical. To be noted: stated as substantially lower than 1 M. How it is done:
In other cases, solubility tests with acetonitrile instead of propylene carbonate was performed.
In the case that solids remained after addition of solvent and vigorous stirring, the solubility of a candidate is assessed by visual inspection of the amount of remaining compound versus the amount of compound prior to solvent addition. In the case of a commercially available candidate dissolved in tetrahydrofuran (THF), the THF is removed under reduced pressure prior to addition of solvent.

Series [2] is described as follows: Profiling: penetration of oxygen through candidate solution, measured with an OX10 oxygen microsensor. To be noted: 0.1 M solution in propylene carbonate. How it is done: The penetration of oxygen through the solution of the candidates was determined using an OX10 oxygen microsensor from Unisense A/S in conjunction with a microprofiling laboratory stand.
A small capillary, cautiously filled with candidate solution in order to avoid bulk oxidation, was placed underneath the tip of the oxygen microsensor. The microprofiling stand was remotely controlled by the bundled software in order to move the microelectrode tip with five to ten micrometers between each concentration measurement. The microelectrode was calibrated prior to each candidate measurement using air-bubbled demineralised water and oxygen-free alkaline ascorbic acid solution.
The microsensor was used to profile oxygen-free alkaline ascorbic acid solution prior to and after measurement of each candidate to 1) ensure that physical damage during candidate measurement could be detected and to 2) provide baseline signal for normalisation of candidate profiles.
Each candidate profile was subtracted the baseline signal and normalised with respect to surface oxygen concentration in order to assess the candidate oxygen removal efficiency. A normalised signal of unity equals surface oxygen concentration and a normalised signal of 0.01 equals a dissolved oxygen concentration of 1 % of surface concentration.

With `CC(C)(C)P(CCCC[N+]1(C)CCOCC1)C(C)(C)C.[Br-]` [Candidate 10, N-[4-(di-tert-butylphosphino)butyl]-N-methylmorpholinium bromide], the “Concentration in propylene carbonate (PC)” value in series [1] is “lower than 1 M”. Take `c1ccc(Pc2ccccc2)cc1` [Candidate 1, Diphenylphosphine]: the Oxygen profile depth entry in series [2] was “ca. 75 µm”.
